According to PubChem BioAssay (NCI):
“And” between values parts separate entries of the source, which are not always exact repeats. Equal values may be shown once.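 Compound exposure: 48 hours, 5 concentrations, 96-well plates. GI50 is the concentration that inhibits growth by half. TGI: total growth inhibition.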 *1 amine or outer side, *2 acyl side, *3 side chain or, on linkers, in order; H or OH if unused. Where a SMILES comes first, the peptide text is derived from it. Bridges are numbered along the chain shown (N, C = ends). Roman numbers before positions name the chains, in order. [ ]: non-standard residue; d: D form. Actinocin(1to9) = Cc1c2oc3c(C)ccc(C(=O)[*:2])c3nc-2c(C(=O)[*:1])c(N)c1=O; NMeV = CN[CH](C(=O)O)C(C)C; Sar = CNCC(=O)O

Columns and labels:
Experiment in all cases: DTP human tumour cell line panel, 48 h
[1] = test system: A498 renal
[2] = test system: ACHN renal
[3] = test system: BT-549 breast
[4] = test system: CCRF-CEM leukemia
[5] = test system: COLO 205 colon
[6] = test system: HT29 colon
[7] = test system: K-562 leukemia
[8] = test system: NCI-H23 lung
[9] = test system: NCI-H460 lung
[10] = test system: OVCAR-3 ovarian
[11] = test system: SF-295 CNS
[12] = test system: SK-MEL-5 melanoma
[13] = test system: SN12C renal
[14] = test system: SNB-75 CNS
[15] = test system: T-47D breast
[16] = test system: UACC-257 melanoma
[17] = test system: UACC-62 melanoma
[18] = test system: SF-539 CNS

Compound	TGI [1] [µM]	TGI [2]	TGI [3] [µM]	TGI [4] [µM]	TGI [5] [µM]	TGI [6]	TGI [7] [µM]	TGI [8] [µM]	TGI [9] [µM]	TGI [10]	TGI [11] [µM]	TGI [12] [µM]	TGI [13] [µM]	TGI [14]	TGI [15] [µM]	TGI [16] [µM]	TGI [17]	TGI [18] [µM]	GI50 [10] [µM]	GI50 [14] [µM]
Cc1c(CN2CCOCC2)c(CN2CCOCC2)c(C)n1-c1ccc(Cl)cn1	> 100	> 100 µM	> 100	> 100	> 100	> 100 µM	> 100	> 100	> 100	> 100 µM	> 100	> 100	> 100	> 100 µM	> 100	> 100	> 100 µM			
COc1ccc(NCc2cccc3c(=O)c4ccc(Cl)cc4oc23)cc1	> 100	> 100 µM	> 100	> 100	> 100		> 100	> 100		> 100 µM	> 100	> 100	> 100	> 100 µM	> 100	> 100	> 100 µM	> 100		
CCN(CC)CCC(=O)c1ccc(Cl)c(Cl)c1	76	> 100 µM	36.3	50.5	91.4	> 100 µM	> 100		> 100		> 100	35.5	> 100	80.1 µM	51.1	> 100	31 µM			
COc1ccc(CC2NC(=O)C(NC(=O)c3c4nc5c(C(=O)NC6C(=O)NC(Cc7ccc(OC)cc7)C(=O)N7CCCC7C(=O)N(C)CC(=O)N(C)C(C(C)C)C(=O)OC6C)ccc(C)c5oc-4c(C)c(=O)c3N)C(C)OC(=O)C(C(C)C)N(C)C(=O)CN(C)C(=O)C3CCCN3C2=O)cc1 (centres undefined) (I: TY(Me)P[Sar][NMeV] / II: TY(Me)P[Sar][NMeV]; ester I:1-I:C, II:1-II:C; linker I:N-II:N via Actinocin(1to9); configuration not given here)	0.0242	1.66 µM and 1.55 µM	0.0254	0.0418	0.0172	0.0174 µM and 0.0463 µM	0.0708	0.126		0.025 µM and 0.0737 µM	> 100	0.0172		0.0339 µM and 0.324 µM	0.0705	0.0349	0.00628 µM and 0.0307 µM	0.0257	< 0.001	0.0552
COC(=O)C1=C(N)C2=C(N)Oc3ccccc3C2CC1=C(C#N)C#N (centres undefined)	68.6	72.8 µM	58.2	> 100	44.1	53.3 µM	57.3	54		> 100 µM	90.2	52.7	92.6	68.6 µM	67.1	> 100	36.3 µM	71.2		
COc1cc2c(cc1OC)C1CN3CCCC3C(O)C1c1cc(OC)c(OC)cc1-2 (centres undefined)	> 100	> 100 µM	> 100	> 100	> 100	> 100 µM	> 100	> 100	> 100		> 100	> 100	> 100		> 100	> 100	> 100 µM			
CC1CCC2C(C)C(OC(=O)CCC(=O)O)OC3OC4(C)CCC1C32OO4 (centres undefined)	> 100	18.3 µM	> 100	36	6.71	> 100 µM	19.8		33.4	> 100 µM	> 100	17.7	> 100	> 100 µM	> 100	> 100	> 100 µM	29.1		
O=c1nc(N2CCCCC2)sc2[nH]c3ccccc3c12	> 100	> 100 µM	> 100		> 100	> 100 µM	> 100	26.2	> 100	> 100 µM	> 100	> 100	> 100	> 100 µM	> 100	> 100	> 100 µM	> 100		
c1ccc(C2(c3cc4ccccc4[nH]3)OCCO2)nc1	> 100	> 100 µM	> 100	> 100	> 100	> 100 µM		> 100	> 100	> 100 µM	> 100	> 100		> 100 µM	> 100	> 100	> 100 µM	> 100		
O=C(O[C@H](/C=C/c1ccccc1)P1(=O)N(Cc2ccccc2)[C@H]2CCCC[C@@H]2N1Cc1ccccc1)c1ccccc1	> 100	> 100 µM	> 100	> 100	3.27	> 100 µM	> 100	48.3	> 100	> 100 µM	> 100	4.1	14.5		3.86	> 100	> 100 µM	> 100		
Cc1ccc(NC(=O)CC(=O)N2N=C(N(c3ccccc3)c3ccccc3)CC2c2ccccc2)cc1 (centres undefined)	> 100	> 100 µM	> 100	> 100	> 100	> 100 µM	> 100	> 100	> 100	> 100 µM	> 100	> 100		> 100 µM	> 100	> 100	> 100 µM	> 100		
O=S(=O)(Cc1ccccc1)c1nnc(S(=O)(=O)c2ccc(Cl)cc2)s1	43.6	36.4 µM	41.6		36.6	60.7 µM	> 100	54.2	48.2	58.6 µM	54.9	33.6	46.7	32.5 µM	> 100	48.8	58.7 µM	63.3		
CN1CC=C(C#CC(C)(C)O)CC1		> 37.5 µM	> 37.5	> 37.5	> 37.5	> 37.5 µM	> 37.5	> 37.5	> 37.5	> 37.5 µM	> 37.5	> 37.5	> 37.5	> 37.5 µM	> 37.5	> 37.5	> 37.5 µM			
CN(C)CCNc1ncnc2nc(-c3ccccc3)c(-c3ccccc3)nc12	> 100		> 100	> 100	> 100	> 100 µM		> 100		> 100 µM		> 100	> 100	> 100 µM	> 100	> 100	> 100 µM	> 100		
